Results taken from article PMC6010123, “Synthesis of chiral pyrazolo[4,3-e][1,2,4]triazine sulfonamides with tyrosinase and urease inhibitory activity” (Journal of Enzyme Inhibition and Medicinal Chemistry, 2016).
Read-outs that look alike come from different tables or passages of the source.

Legend:
[1] = biological target: T1, Jack bean urease (EC 3.5.1.5) (Canavalia ensiformis, UniProt P07374); assay: biochemical
T1 construct: purchased Sigma (St. Louis, MO, USA)

[2] = biological target: mushroom tyrosinase (Agaricus bisporus, UniProt C7FF04); assay: Kinetic study of mushroom tyrosinase inhibition (Lineweaver-Burk, secondary replot, Dixon plot); type: biochemical; details: substrate L-DOPA
Sequence of mushroom tyrosinase (C7FF04 2-392): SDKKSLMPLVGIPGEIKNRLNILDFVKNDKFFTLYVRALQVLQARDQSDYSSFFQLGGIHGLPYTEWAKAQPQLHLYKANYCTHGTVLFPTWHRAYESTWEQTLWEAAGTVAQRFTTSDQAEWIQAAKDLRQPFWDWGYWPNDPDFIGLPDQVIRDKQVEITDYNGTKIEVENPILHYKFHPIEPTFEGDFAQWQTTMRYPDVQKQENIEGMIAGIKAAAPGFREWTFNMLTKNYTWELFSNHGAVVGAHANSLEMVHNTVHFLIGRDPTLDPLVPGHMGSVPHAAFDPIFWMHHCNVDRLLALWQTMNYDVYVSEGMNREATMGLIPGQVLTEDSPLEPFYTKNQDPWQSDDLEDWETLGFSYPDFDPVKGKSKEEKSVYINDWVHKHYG
Method: Lineweaver–Burk plots of 1/absorbance versus 1/L-DOPA and 1/absorbance versus 1/Urea were used to determine the type of enzyme inhibition. A series of experiments were performed to determine the inhibition kinetics by following method[18] ^, [28] ^, [29]. Different inhibitor concentrations of compound 8b with 0, 15, 30, 61, 123 and 247 μM, 8j with 0, 14, 28 and 55.8 μM, respectively were used in case of mushroom tyrosinase inhibition. Substrate L-DOPA concentration was between 0.062 and 2 mM in all tyrosinase kinetic study. Pre-incubation and measurement time was the same as discussed in mushroom tyrosinase inhibition assay protocol. Maximal initial velocity was determined from initial linear portion of absorbance up to five minutes after addition of enzyme at a 30 s interval. The inhibition type on the enzyme was assayed by Lineweaver–Burk plots of inverse of velocities (1/V) versus inverse of substrate concentration 1/[S] mM ^− ^1, and the inhibition constant Ki was determined by two methods, by secondary replot of 1/V (y-intercept of Lineweaver–Burk plot) versus inhibitor concentrations and by Dixon plot of inverse of velocities (1/V) versus inhibitor concentrations.

[3] = biological target: T2, Jack bean urease (Canavalia ensiformis, UniProt P07374); assay: Kinetic study of urease inhibition (Lineweaver-Burk, secondary replot, Dixon plot); type: biochemical
T2 construct: purchased Sigma (St. Louis, MO, USA)
T2 sequence (P07374 whole entry, looked up): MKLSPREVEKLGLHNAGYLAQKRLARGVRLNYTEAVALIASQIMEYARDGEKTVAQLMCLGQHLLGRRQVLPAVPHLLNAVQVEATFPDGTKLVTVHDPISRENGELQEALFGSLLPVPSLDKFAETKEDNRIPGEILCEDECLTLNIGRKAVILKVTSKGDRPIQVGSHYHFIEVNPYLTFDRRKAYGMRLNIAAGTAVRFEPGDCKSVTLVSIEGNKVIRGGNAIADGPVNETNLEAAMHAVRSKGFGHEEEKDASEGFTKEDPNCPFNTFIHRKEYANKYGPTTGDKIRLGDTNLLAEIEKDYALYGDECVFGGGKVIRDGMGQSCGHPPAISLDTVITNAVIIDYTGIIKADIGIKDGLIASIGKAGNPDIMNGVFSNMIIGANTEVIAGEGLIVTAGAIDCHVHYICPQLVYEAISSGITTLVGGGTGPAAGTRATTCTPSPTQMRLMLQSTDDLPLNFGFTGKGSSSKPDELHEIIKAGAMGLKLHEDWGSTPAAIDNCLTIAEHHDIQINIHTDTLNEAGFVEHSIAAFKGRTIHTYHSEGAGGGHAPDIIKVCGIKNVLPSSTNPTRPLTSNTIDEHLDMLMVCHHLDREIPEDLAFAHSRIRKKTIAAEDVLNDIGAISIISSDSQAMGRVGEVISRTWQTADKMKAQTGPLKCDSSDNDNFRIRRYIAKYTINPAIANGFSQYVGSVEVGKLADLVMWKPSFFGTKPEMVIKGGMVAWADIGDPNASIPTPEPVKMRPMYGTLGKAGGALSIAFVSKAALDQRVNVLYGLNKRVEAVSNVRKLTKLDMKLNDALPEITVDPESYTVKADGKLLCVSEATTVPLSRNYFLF
Method: Urease inhibition was measured by varying the concentration of urea in the presence of different concentrations (0, 0.125, 0.25 and 0.5 μM) of compound 8a. Inhibitory constant (Ki) was determined as the intersection on the X-axis of the secondary replot of 1/V (y-intercept of Lineweaver–Burk plot) versus inhibitor concentrations and by Dixon plot of inverse of velocities (1/V) versus inhibitor concentrations. Briefly the urea concentration was changed from 3.12 to 100 mM for urease kinetics studies and remaining procedure was same as describes in urease inhibition assay protocol. Urease activity was determined by measuring ammonia production using the indophenol method as reported previously. The results (change in absorbance per min) were processed by using SoftMaxPro software(Molecular Devices Corporation Sunnyvale, CA) and a Dixon plot was constructed by plotting (1/V) versus inhibitor concentration [I].

T1 sequence (P07374 whole entry, looked up): as above

| Compound | IC50 [1] | also measured |
| --- | --- | --- |
| CCOc1ccc(S(=O)(=O)NC[C@H](O)CO)cc1-c1nnc2c(n1)c(C)nn2C [8g, (S)-N-(2,3-dihydroxypropyl)-3-(1,3-dimethyl-1H-pyrazolo[4,3-e][1,2,4]triazin-5-yl)-4-ethoxybenzenesulfonamide] | 0.063 ± 0.016 µM | – |
| CCOc1ccc(S(=O)(=O)N[C@H](C)CO)cc1-c1nnc2c(n1)c(C)nn2C [8b, (R)-3-(1,3-dimethyl-1H-pyrazolo[4,3-e][1,2,4]triazin-5-yl)-4-ethoxy-N-(1-hydroxy-propan-2-yl)benzenesulfonamide] | 0.084 ± 0.02 µM | Mushroom tyrosinase type of inhibition [2]: Noncompetitive |
| NC(N)=S [Thio-Urea, thiourea, reference compound] | – | IC50 ([1]; Jack bean urease, 100 mM urea, pH 8.2, 37 °C, read-out: Urease IC50): 20.7 ± 0.45 µM |
| CCOc1ccc(S(=O)(=O)NC[C@@H](C)O)cc1-c1nnc2c(n1)c(C)nn2C [8f, (R)-3-(1,3-dimethyl-1H-pyrazolo[4,3-e][1,2,4]triazin-5-yl)-4-ethoxy-N-(2-hydroxy-propyl)-benzenesulfonamide] | – | IC50 ([1]; read-out: Urease IC50, Jack bean urease, 100 mM urea, pH 8.2, 37 °C): 0.044 ± 0.13 µM |
| CCOc1ccc(S(=O)(=O)NC[C@@H](O)CO)cc1-c1nnc2c(n1)c(C)nn2C [8h, (R)-N-(2,3-dihydroxypropyl)-3-(1,3-dimethyl-1H-pyrazolo[4,3-e][1,2,4]triazin-5-yl)-4-ethoxybenzenesulfonamide] | 0.08 ± 0.014 µM | – |
| CCOc1ccc(S(=O)(=O)N[C@H](CO)CC(C)C)cc1-c1nnc2c(n1)c(C)nn2C [8i, (S)-3-(1,3-dimethyl-1H-pyrazolo[4,3-e][1,2,4]triazin-5-yl)-4-ethoxy-N-(1-hydroxy-4-methylpentan-2-yl)benzenesulfonamide] | 0.042 ± 0.012 µM | – |
| CCOc1ccc(S(=O)(=O)N[C@H](CO)C(C)C)cc1-c1nnc2c(n1)c(C)nn2C [8c, (S)-3-(1,3-dimethyl-1H-pyrazolo[4,3-e][1,2,4]triazin-5-yl)-4-ethoxy-N-(1-hydroxy-3-methylbutan-2-yl)benzenesulfonamide] | 0.078 ± 0.02 µM | – |
| CCOc1ccc(S(=O)(=O)N[C@@H](CO)CC(C)C)cc1-c1nnc2c(n1)c(C)nn2C [8j, (R)-3-(1,3-dimethyl-1H-pyrazolo[4,3-e][1,2,4]triazin-5-yl)-4-ethoxy-N-(1-hydroxy-4-methylpentan-2-yl)benzenesulfonamide] | 0.08 ± 0.015 µM | Mushroom tyrosinase type of inhibition [2]: Mixed type |
| CCOc1ccc(S(=O)(=O)N[C@@H](C)CO)cc1-c1nnc2c(n1)c(C)nn2C [8a, (S)-3-(1,3-dimethyl-1H-pyrazolo[4,3-e][1,2,4]triazin-5-yl)-4-ethoxy-N-(1-hydroxy-propan-2-yl)benzenesulfonamide] | 0.037 ± 0.003 µM | Ki [3]: 0.01 µM; Urease type of inhibition ([3]; Lineweaver-Burk plot, substrate urea): Mixed type |
| CCOc1ccc(S(=O)(=O)NC[C@H](C)O)cc1-c1nnc2c(n1)c(C)nn2C [8e, (S)-3-(1,3-dimethyl-1H-pyrazolo[4,3-e][1,2,4]triazin-5-yl)-4-ethoxy-N-(2-hydroxy-propyl)-benzenesulfonamide] | 0.076 ± 0.007 µM | – |
| CCOc1ccc(S(=O)(=O)N[C@@H](CO)C(C)C)cc1-c1nnc2c(n1)c(C)nn2C [8d, (R)-3-(1,3-dimethyl-1H-pyrazolo[4,3-e][1,2,4]triazin-5-yl)-4-ethoxy-N-(1-hydroxy-3-methylbutan-2-yl)benzenesulfonamide] | 0.064 ± 0.02 µM | – |
